From patent US6649648B1, “Therapeutic methods and compositions involving isoflavones” (Novogen Research Pty Limited, priority 1996, dated 2003)

Assays:
[1] = test system: HL60; test: Anti-cancer screening assay, inhibition of cell proliferation; assay type: cell-based, human
Method: (§1) The activity of compounds of the present invention in inhibiting the growth of hormone responsive cancer cells were tested using the well characterised human responsive cancer cell lines K562 and HL60. The anti-cancer screening assay measured inhibition of cell proliferation which results in terminal differential cell death.

[2] = test system: K562; test: as above; assay type: cell-based, human; conditions: cell line printed K563 at the result
Method: as §1

[3] = test system: LDL receptor; test: LDL Receptor Studies, LDL uptake into liver cells; assay type: cell-based
Source text: 4. LDL Receptor Studies—Treatment of atherosclerosis, myocardial infarction, stroke and hypertension. This will establish that compounds which up-regulate the LDL receptor, lead to decreased circulating LDL, and therefore reduces the prospect of atherosclerosis, myocardial infarction, stroke and hypertension. Using an assay according to Stephan Z. F. and Yurachek, E. C. (1993) J. Lipid. Res. 34, 325-330, it is shown that the compounds of the formulae 1 to 19 are effective in increasing LDL uptake into liver cells, this being directly predictive of decrease of circulating LDL in the human blood stream.

[4] = test system: rat aortic rings; test: Vascular reactivity, rat aortic rings with noradrenaline; assay type: cell-based; conditions: rat aortic ring, vasoconstrictor noradrenaline
Method: Vascular reactivity studies using rat aortic rings is generally regarded as directly predictive of biological effects of candidate compounds in the treatment of the above conditions (Karapapanis, S. et al (1994) Heptology, 20, 6, 1516-1521). The inhibitory effect on restrictor responses in the aortic ring is measured in the presence of the vasoconstrictor noradrenaline according to the procedure of Karapapanis (supra).

[5] = test system: human LDL; test: Redox Test (LDL lipid oxidation in the presence of vitamin E); assay type: biochemical; conditions: for Redox Index: human LDL, 20% consumption of endogenous α-tocopherol, BHT 10 μm, lower value = higher activity
Source text: 2. Redox Test—This test measures the ability of a compound to prevent LDL lipid oxidation in the presence of vitamin E. The test is a physiological test, vitamin E (α-tocopherol) is present with LDL in the blood stream, and LDL oxidation is believed to be one of the major factors of the development of atherosclerosis. The lower values, the higher the redox activity. […] The test indirectly assesses the ability of a compound to synergise with α-tocopherol in human LDL undergoing mild and chemically controlled oxidation. Oxidation is measured by the accumulation of cholesterylester hydroperoxides at a time point corresponding to 20% consumption of endogenous α-tocopherol. Butylated hydroxytoluene (BHT 10 μm) is used as a positive control. The redox index is measured by the relative extent of oxidation of LDL in the presence of the sample divided by the relative extent of oxidation in the absence of the test compounds. […] Tests were carried out according to Bowry, V. W. et al (1995) J. Bio. Chem. 270 (11) 5756-5763.

[6] = test system: LDL; test: LDL Antioxidation Test; assay type: biochemical; conditions: for Lag Times / % Increase Over Control: LDL 0.25 mg/ml, 10 μm active compound, 4 μm Cu++; for Lag Times: control 20 min; for antioxidant potency (in words): conclusion from the LDL antioxidation test; for % Increase Over Control: lag time
Method: 1. LDL Antioxidation Test—This test measures the ability of a compound to directly scavenge free radicals or to chelate transition metals. […] These tests were carried out according to the procedure of Esterbauer et al Free. Rad. Res. Coms. (1989) 6, 67-75. Briefly, LDL (0.25 mg/ml) is incubated with 10 μm active compound in the presence of 4 μm Cu^++, and LDL was assayed for oxidation by HPLC analysis.

[7] = test system: breast cancer; test: Prevention of breast cancer in high risk women, transdermal patch; assay type: in vivo, human; conditions: same manner and amount, six month trial period
Method: This study investigated whether compounds 1 through 19 administered transdermally each day through a skin patch could be used to prevent breast cancer or metastatic cancers following cancer therapy. Patches were prepared that contained a lipophylic carrier cream which is readily absorbed through the skin. The cream comprised a glycerol cold cream which contained glycerin and peanut oil. A selected active compound from any one of compounds of the formulae 1 to 19 is mixed with the lipophylic cream such that each patch comprises 10 mg to 100 mg of active compound. The patch is applied to the skin each day and rapid absorption occurs. After two hours the patch is removed. Alternatively, the patch may be left on for a greater part of each day.

[8] = test system: bowel cancer; test: Patients with advanced or terminal bowel cancer; assay type: in vivo, human; conditions: intravenous infusion 2 g daily, three weeks, advanced bowel cancer
Method: A patient suffering from advanced bowel cancer is treated daily for three weeks with an intravenous infusion of 2 g of the compound of the formula 14 dissolved in sterile saline. […] Progression of the tumour is also arrested over the treatment period.
A second patient suffering from the same condition is treated in the same manner as the above patient with the exception that the 2 g dose of the active compound is administered by way of bolus injection.
In a further series of experiments a group of patients suffering from terminal bowel cancer were treated by bolus daily injections (intravenous or intramuscular) of 2 g of a compound selected from one of the formulae 1 to 19. Over the test period there is shown to be a marked reduction in pain and discomfort. Tumour markers (carcino-embryonic antigen (CEA)) are reduced as evidenced by blood analysis and tumour spread decreased.

## Oc1ccc([C@H]2COc3cc(O)ccc3C2)cc1 [equol]
[1]
  inhibition of growth of cell line: potent inhibitors of growth
[2]
  inhibition of growth of cell line: potent inhibitors of growth
[3]
  increase of LDL uptake into liver cells: particularly active
[4]
  inhibitory effect on vaso-constrictor responses to noradrenaline: potent inhibitory effects on responses to noradrenaline

## Cc1cc(C(C)(C)C)c(O)c(C(C)(C)C)c1 [BHT, Butylated hydroxytoluene, reference compound]
[5]
  Redox Index: 6.3

## Tetrahydrodaidzein
[6]
  Lag Times: >140 min
  antioxidant potency (in words): extremely potent antixoidants
  % Increase Over Control: >600%
[1]
  inhibition of growth of cell line: strong inhibition
[4]
  inhibitory effect on vaso-constrictor responses to noradrenaline: potent inhibitory effects on responses to noradrenaline

## C=C(C(=O)c1ccc(O)cc1O)c1ccc(O)cc1 [Compound 11, 2-dehydro-O-demethylangolensin]
[7]
  evidence of breast cancer or other metastatic cancer: same beneficial results

## O=C1c2c(O)cc(O)cc2OCC1c1ccc(O)cc1 (stereo not shown) [dihydrogenestein, Dihydrogenistein]
[4]
  inhibitory effect on vaso-constrictor responses to noradrenaline: potent inhibitory effects on responses to noradrenaline

## CC(C(=O)c1c(O)cc(O)cc1O)c1ccc(O)cc1 (stereo not shown) [Compound 14, 6-hydroxy-O-demethylangolensin]
[8]
  cancer markers: reduction
  pain and discomfort: significantly reduced
  progression of the tumour: arrested
[7]
  evidence of breast cancer or other metastatic cancer: same beneficial results

## O=C1c2ccc(O)cc2OCC1c1ccc(O)cc1 (stereo not shown) [Dihydrodaidzein, dihydrodaidzein]
[4]
  inhibitory effect on vaso-constrictor responses to noradrenaline: potent inhibitory effects on responses to noradrenaline

## Oc1ccc(C2=Cc3ccc(O)cc3OC2)cc1 [Dehydroequol]
[6]
  Lag Times: >140 min
  antioxidant potency (in words): extremely potent antixoidants
  % Increase Over Control: >600%
[5]; Redox Test
  synergistic interaction with vitamin E to prevent oxidation: interacts synergistically with vitamin E to prevent oxidation
[5]
  Redox Index: 4.5±1.2
